# Laboratory results: US20090170899A1, “Stimulators of 5-HT4 receptors and uses thereof” (priority 2004, published 2009)
# Entries after “also recorded” stand apart in the source; their conditions may differ.
# Assays:
# Type in all cases: in vivo, rat
# [1] = test system: hippocampal CA3 pyramidal neurons; experiment: Response of hippocampal CA3 pyramidal neurons to WAY 100635 after 3-day treatments (5-HT1A tonus)
# Experimental: FIGS. 8A to 8C. […] Single-cell extracellular recordings were performed in the CA3 region of chloral-hydrate anaesthetized rats by using multiple-barrel glass microelectrodes, combined with microiontophoretic pumps (with the central barrel used for recordings). Pyramidal neurons were identified according to the classical criteria (see Example 5, the experimental procedures). The 5-HT4 agonists were administered through the use of osmotic minipumps, inserted subcutaneously in the region of the back. Recordings were performed with the minipumps still in place. *p<0.05, **p<0.01, ***p<0.001 vs control, Dunnett's test. […] FIG. 8C is a typical example showing the response of a single pyramidal neuron to cumulative doses of WAY 100635, in a rat co-administered with RS 67333 (same treatment as above for FIG. 8A) and the 5-HT depleter para-chlorophenylalanine (pCPA; 150 mg/kg, i.p. once daily 72, 48 and 24 h before the recordings).
# Drugs and Chemicals. The following compounds were used: GR 125487 sulphamate, prucalopride monohydrochloride, citalopram hydrobromide (gifts from Glaxo, Janssen and Lundbeck laboratories, respectively), RS 67333 hydrochloride (Tocris Cookson Inc., Ellisville, Mo., USA), WAY 100635 hydrochloride (Research Biochemicals, Natick, Mass., USA), pCPA methyl ester hydrochloride, BrdU (Sigma-Aldrich Canada, Oakville, Ontario, Canada). All compounds were diluted in distilled water. All drug dosages refer to the free base. For chronic treatments, prucalopride (2.5 mg/kg/day), RS 67333 (1.5 mg/kg/day) or the vehicle were delivered through osmotic minipumps (Alza, Palo Alto, Calif., USA), inserted subcutaneously in the region of the back under short-duration (≦5 min) halothane anesthesia. The 5-HT depleter PCPA was administered once daily at the dose of 150 mg/kg, i.p., 72, 48 and 24 h before the recordings. BrdU treatments consisted of two administrations per day (50 mg/kg, i.p. each, 8 h interval), starting from the day of minipump insertion until day 2 post-surgery.
# (§1) Microiontophoresis and extracellular recordings from hippocampal CA3 pyramidal neurons. Recording and microiontophoresis were performed with five-barreled glass micropipettes broken back to 8-12 μm under microscope control. The central barrel was filled with the same solution as in the DRN and was used for extracellular unitary recordings. Pyramidal neurons were identified by their large amplitude (0.5-1.2 mV) and long-duration (0.8-1.2 ms) simple spikes alternating with complex spike discharges (Kandel and Spencer, 1961). The side barrels contained the following solutions: quisqualate (1.5 mM in 200 mM NaCl, pH 8), WAY 100635 (15 mM in 200 mM NaCl, pH 4), and 2 M NaCl used for automatic current balancing. Rats were mounted in the stereotaxic apparatus and the micropipettes were lowered at 4.2 mm lateral and 4.2 anterior to lambda into the CA3 sub-region of the dorsal hippocampus.
# The firing activity of dorsal hippocampus pyramidal neurons was then recorded in the CA3 subfield, before and after systemic administration of the selective 5-HTLA antagonist WAY 100635.
# [2] = test system: hippocampal CA3 pyramidal neurons; experiment: Acute i.v. prucalopride on firing of hippocampal CA3 pyramidal neurons, with microiontophoresis
# Experimental: FIGS. 9A to 9D. FIGS. 9A and 9C show a typical example (integrated firing rate histogram) of the response of a single hippocampal pyramidal neuron of the CA3 sub-field to an acute, intravenous administration of the selective 5-HT4 agonist prucalopride (1000 μg/kg), and its reversal by local, microiontophoretic application of the selective 5-HT1A antagonist WAY 100635 (A), or systemic injection of the selective 5-HT4 antagonist GR 125487 (1000 μg/kg, i.v.) (C). Single-cell extracellular recordings were performed in the CA3 region of chloral-hydrate anaesthetized rats by using multiple-barrel glass microelectrodes, combined with microiontophoretic pumps (with the central barrel used for recordings). Pyramidal neurons were identified according to the classical criteria (see Example 5, experimental procedures). FIGS. 9B and 9D show a summary of the effects as for FIGS. 9A and 9C, respectively. Bar histograms represent the mean (S.E.M.) percentage effect, calculated for each neuron with respect to its basal firing rate (i.e. 100% value), and the number in each column represents the number of neurons tested. *p<0.05 vs basal value, one-way ANOVA.
# as §1
# Involvement of endogenous 5-HT and hippocampal 5-HT1A receptors in the effect of 5-HT4 agonists. […] This interpretation is consistent with our own previous findings, showing that both acute and chronic (3-day) administration of the same compounds augment DRN 5-HT neuronal firing activity (Lucas and Debonnel, 2002; Lucas et al., 2005). It is also in keeping with observations from a single in vivo microdialysis study, where acute systemic injection of preferential 5-HT4 agonists increased hippocampal 5-HT efflux (Ge and Barnes, 1996). To further address this possibility, two additional series of experiments were conducted. First, the role of endogenous 5-HT was assessed by using the same protocol as above, in rats co-treated with RS 67333 (or its vehicle) and the 5-HT depleter para-chlorophenylalanine (pCPA). […] The ejection currents of quisqualate needed to activate CA3 pyramidal neurons were, in this case, similar to those used in controls (0 to −2 nA, FIG. 8C). We then tested the ability of a local application of WAY 100635, directly into the CA3 subfield through the use of microiontophoresis, to modify the effect of a 5-HT4 agonist. We chose not to use the previous protocol (i.e. chronic treatments), because, as shown above, the required quisqualate currents differ between the experimental groups. Even though all currents were balanced, it was not possible to exclude the possibility that the amount of quisqualate present in the vicinity of the electrode may have an influence on the quantity of WAY 100635 actually ejected, and/or on its ability to act on pyramidal neurons. For this reason, prucalopride was used acutely in naïve rats, at a dose known to induce a significant augmentation of DRN 5-HT neuronal activity (1000 μg/kg, i.v.) (Lucas and Debonnel, 2002). […]
# DRN 5-HT neurons = experiment: Extracellular single-unit recordings of DRN 5-HT neuron mean firing rate in anaesthetized rats
# [3] = Forced swimming test (FST)
# Text: The “forced swimming test” (FST) is a behavioural test for rodents, which predicts the efficacy of antidepressant drugs (Porsolt et al., 1977; Lucki, 1997). […] The widespread use of this model is largely a result of its ease of use, reliability across laboratories and ability to detect a broad spectrum of antidepressant agents. The test is based on the observation that rats, following initial escape-oriented movements (climbing and swimming), develop an immobile posture when placed in an inescapable cylinder of water. If they are replaced in the same testing apparatus 24 h later, they resume this immobile posture quickly. The immobility is thought to reflect either a failure of persistence in escape-directed behavior (i.e. behavioral despair) or the development of passive behavior that disengages the animal from active forms of coping with stressful stimuli. If antidepressant treatments are given between the two exposures, the subjects will actively persist engaging in escape-directed behaviors for longer periods of time than after vehicle treatment. This will be reflected by a reduction of immobility time, and by an increase of climbing attempts. […] The combination effect of a particular 5-HT4 agonist and a SSRI may be evaluated using the FST model.
# Experiments were carried out in male Sprague-Dawley rats (Charles River, St Constant, Québec). We used the FST as previously described (Porsolt et al., 1977). Briefly, the rats experienced a pretest session followed 24 hours later by a test session. For both the pretest and the test sessions, conducted under low illumination (12 lx), the rats were placed in a plastic cylindrical tank (50 cm high by 20 cm in diameter) filled with water at […], with a depth of 40 cm, for which the hind limbs could not reach the tank floor. In all experiments, the pretest was carried out for 15 min and the test for 5 min in the same tank but only the last 4 min were analyzed. Following either pretest or test sessions, rats were dried with a towel and kept warm for 30 min before returning in their home cage. A digital camera recorded on line animal's behavior during the FST, and both time of immobility and climbing attempts were counted. Citalopram hydrobromide (10 mg/kg, i.p.) or paroxetine (10 mg/kg, i.p.) and prucalopride hydrochloride (2.5 mg/kg, i.p.) or RS 67333 hydrochloride (1.5 mg/kg, i.p.) were administered simultaneously 30 minutes before the test session. Animals were divided into 4 groups: vehicle/vehicle, 5-HT4 agonist/vehicle, vehicle/SSRI and 5-HT4 agonist/SSRI. For each compound, distilled water was used as the vehicle. All drug dosages refer to the free base.
# Behavioral experiments. We used the FST as previously described (Porsolt et al., 1977). Briefly, rats experienced a pre-test session followed 24 hours later by a test session. For both the pre-test and the test sessions, conducted under low illumination (12 lx), the animals were placed in a plastic cylindrical tank (50 cm high by 20 cm in diameter) filled with water at […], with a depth of 40 cm, for which the hind limbs could not reach the tank floor. In all experiments, the pre-test was carried out for 15 min and the test for 5 min in the same tank but the last 4 min only were analyzed. Prucalopride (2.5 mg/kg, i.p.) and RS 67333 (1.5 mg/kg, i.p.) were administered 30 min before the test session. Following either pre-test or test sessions, rats were dried with a towel and kept warm for 30 min before returning in their home cage. A camera coupled with a computer recorded on line animal behavior during the FST through a specialized digital interface (Videotrack, ViewPoint, Lyon, France). This interface underscored on line the subtraction of video frames. Immobility time in FST was derived from the number of frames (every 40 ms) being below a predefined threshold over FST duration.
# DRN 5-HT1A autoreceptors = experiment: Citalopram i.v. dose-response on DRN 5-HT neuron firing (5-HT1A autoreceptor sensitivity) after 3-day RS 67333
# Experimental: FIG. 7 is a dose-response curve illustrating the effect of cumulative intravenous doses of citalopram on DRN 5-HT neuron average (mean±S.E.M.) firing rate, expressed as percentage of basal activity, in rats treated with the selective 5-HT4 agonist RS 67333 (1.5 mg/kg/day, 3 days, n=5) or its vehicle (n=5). Single-cell extracellular recordings were performed in the DRN of chloral-hydrate anaesthetized rats by using single-barrel glass microelectrodes, and 5-HT neurons were identified according to the classical criteria (see Example 5, the experimental procedures). RS 67333 was administered through the use of osmotic minipumps, inserted subcutaneously in the region of the back. Recordings were performed with the minipumps still in place.
# Extracellular recordings of DRN 5-HT neurons. Recordings were performed using single-barreled glass micropipettes. Electrodes were filled with a 2 M NaCl solution saturated with Fast Green FCF, resulting in an impedance of 2-5 MΩ. Rats were anaesthetized with chloral hydrate (400 mg/kg, i.p.) and placed in a stereotaxic frame. A burr hole was drilled on the midline 1 mm anterior to lambda. DRN 5-HT neurons were encountered over a distance of 1 mm starting immediately below the ventral border of the Sylvius aqueduct. These neurons were identified using the classical criteria: a slow (0.5-2.5 Hz) and regular firing rate and long-duration (0.8-1.2 ms) positive action potentials (Aghajanian, 1978). At the end of the experiments, a 25 μA cathodal current was passed through the recording electrode to leave a Fast Green deposit at the recording site. Animals were sacrificed with an i.v. overdose of chloral hydrate, and the brain removed. The site of recording was verified under microscope immediately after experiments.
# Statistical analysis. The comparison between the two slopes in FIG. 7 was performed by using the GraphPad Prism software (Version 3.03, GraphPad Software Inc.). All other statistics were performed by using one-way ANOVAs, followed by the Dunnett's test when multiple comparisons were necessary.
# Effect of a 3-day treatment with a 5-HT4 agonist on DRN 5-HT1A autoreceptors sensitivity. […] In rats treated with the selective 5-HT4 agonist RS 67333 (Eglen et al., 1995) (1.5 mg/kg/day), these values were shifted to the right, reaching 226±26 and 430 μg/kg, respectively. […] The acute inhibitory effect produced by a SSRI on DRN 5-HT neuronal activity results from increased extracellular levels of 5-HT, due to the blockade of its reuptake, and is selectively related to the stimulation of somatodendritic 5-HT1A autoreceptors (Hajos et al., 1999). The degree of inhibition induced by citalopram has therefore been used as a reliable index of their sensitivity (Arborelius et al., 1999, 2004; Sanchez et al., 2003). It appears that a 3-day treatment with a 5-HT4 receptor agonist is sufficient to desensitize 5-HT1A autoreceptors in the DRN.
# [4] = microiontophoretic application, 1 nA
# [5] = rats treated with RS 67333 1.5 mg/kg/day, 3 days
smiles,measurement,setting,value
"N[C@@H](Cc1ccc(Cl)cc1)C(=O)O (racemic) [pCPA, para-chlorophenylalanine]",quisqualate ejection currents needed to activate CA3 pyramidal neurons,[1]; rats co-treated with RS 67333 and pCPA,0 to −2 nA
same,effect of pCPA on the facilitory action of WAY 100635,"[1]; rats treated with RS 67333, pCPA 150 mg/kg i.p. 72, 48 and 24 h before",totally abolished
same,effect of pCPA on CA3 neuron firing activity and response to WAY 100635,[1]; vehicle group,no effect per se
COc1[nH]c2ccc(F)cc2c1C(=O)OCC1CCN(CCNS(C)(=O)=O)CC1 [GR 125487],effect of GR 125487 on the action of prucalopride,[2]; GR 125487 1000 μg/kg i.v.,abolished
same,effect of GR 125487 on the facilitory effect of 3-day prucalopride or RS 67333 on DRN 5-HT firing rate,"DRN 5-HT neurons; GR 125487 acute i.v., tracks from 30 min after injection",totally suppressed
same,effect of GR 125487 on its own on 5-HT neuronal activity,"DRN 5-HT neurons; acute i.v., control rats","small, non statistically significant"
COc1ccccc1N1CCN(CCN(C(=O)C2CCCCC2)c2ccccn2)CC1 [WAY 100635],effect of WAY 100635 on CA3 pyramidal neurons,"[1]; rat, in vivo, iv",no effect; also recorded: without any effect
same,effect of local WAY 100635 by itself,[2]; [4],devoid of any effect
same,effect of local WAY 100635 on the inhibition by prucalopride,[2]; [4],totally reversed
CN(C)CCCC1(c2ccc(F)cc2)OCc2cc(C#N)ccc21 (centres unmarked) [citalopram],change of total time of immobility in FST,"[3]; Example 3, single i.p. 30 min before test, citalopram or paroxetine 10 mg/kg, prucalopride 2.5 mg/kg, RS 67333 1.5 mg/kg",−34%
same,effect on immobility in FST,"[3]; Example 4, citalopram 3 mg/kg i.p.",no effect
same,slope of the dose-response curve,"DRN 5-HT1A autoreceptors; RS 67333 group (1.5 mg/kg/day, 3 days)",−0.25±0.02
same,ED50 of inhibition of 5-HT neuronal firing rate,DRN 5-HT1A autoreceptors; naïve (vehicle) animals,0.13 ± 0.03 mg/kg
same,ED100 of inhibition of 5-HT neuronal firing rate,DRN 5-HT1A autoreceptors; naïve (vehicle) animals,0.28 mg/kg
same,ED50 of inhibition of 5-HT neuronal firing rate,DRN 5-HT1A autoreceptors; [5],0.226 ± 0.026 mg/kg
same,ED100 of inhibition of 5-HT neuronal firing rate,DRN 5-HT1A autoreceptors; [5],0.43 mg/kg
same,slope of the dose-response curve,DRN 5-HT1A autoreceptors; vehicle group,−0.34±0.03
